We go through twelve compounds from patent US9556191B2, “Aminoquinazoline derivatives and their salts and methods of use thereof” (SUNSHINE LAKE PHARMA CO., LTD, priority 2013, dated 2017).

The target in data set [1] is EGFR (human epidermal growth factor receptor) (Homo sapiens (Human), UniProt P00533). Briefly: In vitro kinase inhibitory activity, EGFR. Type of data set: biochemical. The procedure: (§1) Stop buffer was prepared from 100 mM HEPES, pH 7.5, 0.015% Brij-35, 0.2% Coating Reagent #3, and 50 mM EDTA.
EGFR (human epidermal growth factor receptor), sequence (P00533 25-1210): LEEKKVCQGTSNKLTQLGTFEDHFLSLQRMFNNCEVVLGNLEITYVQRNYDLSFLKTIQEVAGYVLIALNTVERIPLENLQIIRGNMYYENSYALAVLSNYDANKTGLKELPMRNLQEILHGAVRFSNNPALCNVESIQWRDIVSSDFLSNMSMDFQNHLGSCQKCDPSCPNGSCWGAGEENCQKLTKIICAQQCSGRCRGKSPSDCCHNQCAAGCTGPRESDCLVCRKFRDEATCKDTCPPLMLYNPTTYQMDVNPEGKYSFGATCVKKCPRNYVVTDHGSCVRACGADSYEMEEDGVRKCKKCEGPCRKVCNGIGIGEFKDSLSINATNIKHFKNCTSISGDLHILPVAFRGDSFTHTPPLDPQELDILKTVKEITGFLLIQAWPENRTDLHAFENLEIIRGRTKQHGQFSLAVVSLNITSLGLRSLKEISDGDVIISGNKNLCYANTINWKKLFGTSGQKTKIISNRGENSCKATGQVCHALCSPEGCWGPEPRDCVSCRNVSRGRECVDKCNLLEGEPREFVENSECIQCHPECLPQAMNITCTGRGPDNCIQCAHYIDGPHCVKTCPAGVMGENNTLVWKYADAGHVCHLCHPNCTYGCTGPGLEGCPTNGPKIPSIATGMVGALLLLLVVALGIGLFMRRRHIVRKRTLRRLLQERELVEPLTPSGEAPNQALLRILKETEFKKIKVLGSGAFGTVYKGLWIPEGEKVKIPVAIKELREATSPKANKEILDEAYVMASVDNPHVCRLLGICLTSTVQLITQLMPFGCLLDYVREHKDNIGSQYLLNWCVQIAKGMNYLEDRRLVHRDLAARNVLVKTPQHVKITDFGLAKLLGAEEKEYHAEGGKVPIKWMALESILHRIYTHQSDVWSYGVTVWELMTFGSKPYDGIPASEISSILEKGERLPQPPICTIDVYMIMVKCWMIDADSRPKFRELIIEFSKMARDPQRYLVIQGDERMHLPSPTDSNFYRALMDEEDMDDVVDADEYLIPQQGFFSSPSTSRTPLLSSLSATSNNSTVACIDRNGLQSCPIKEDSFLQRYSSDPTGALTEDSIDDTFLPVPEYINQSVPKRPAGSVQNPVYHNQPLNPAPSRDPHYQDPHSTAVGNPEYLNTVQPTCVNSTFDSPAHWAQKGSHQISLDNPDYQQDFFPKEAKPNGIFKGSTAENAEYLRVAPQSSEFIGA
(§2) Kinase reaction was performed according to the following procedures: (1) 2.5× kinase solution was prepared by adding kinase into 1× kinase base buffer; (2) 2.5× peptide solution was prepared by adding FAM-labeled peptide and ATP into 1× kinase base buffer; (3) 2.5× kinase solution (10 μL) was added to each well of the 384-well assay plate containing 5 μL of compound in 10% DMSO and then the assay plate was incubated at room temperature for 10 minutes; (4) 2.5× peptide solution (10 μL) was added to each well of the 384-well assay plate; and (5) stop buffer (25 μL) was added to stop the kinase reaction after incubation at 28° C. for a specified period of time.
(§3) Multifunctional microplate reader (BMG LABTECH, PHER Astar FS) with a 320 nm excitation wavelength was used to read and collected the data of by absorbing light at […], which was converted from the rate of 665 signal/620 signal.
(§4) Conversion data were copied, and then converted to inhibition values with the following formula: percent inhibition=(max−conversion)/(max−min)*100 where “max” stands for the DMSO control value, “conversion” stands for the sample value and “[…]” stands for the no-kinase control value. The data were fitted in XLfit to obtain IC50 values.

For data set [2], the target named is HER2 (human epidermal growth factor receptor 2) (Homo sapiens (Human), UniProt P04626). In words: In vitro kinase inhibitory activity, HER-2. Format: biochemical. How it is done:
as §1
as §2, with “time. […]” for “time.”
as §4

Data set [3] has as its target EGFR T790M (human epidermal growth factor receptor T790M mutation) (Homo sapiens (Human), UniProt P00533, T790M). In words: In vitro kinase inhibitory activity, EGFR T790M. Type of data set: biochemical. How it is done: as §1, §2, §3, §4
A short description of data set [4]: Rat PK (pharmacokinetics after iv and po administration). Particulars: male, SD, plasma; for Vd: read-out: Vss. Format: in vivo. From the text:
Materials used include Propranolol (internal standard), methyl alcohol, ammonium acetate, K2EDTA (potassium ethylenediaminetetraacetate), methane acid, acetonitrile, MTBE (methyl tert-butyl ether), Cremophor EL (polyoxyethylated castor oil), KolliphorHS 15 (polyethylene glycol 12-hydroxystearate), DMSO (dimethylsulfoxide), PEG400 (polyethylene glycol 400) and SD rat (male, 180-220 g, 7-8 weeks old, purchased from Hunan Slack King of Laboratory Animal Co., Ltd.), all of which are commercially available.
Each test compound prepared in above examples was completely dissolved in a mixture of 5% DMSO, 5% KolliphorHS 15 and 90% saline.
(1) The test sample stock solution was prepared by dissolving an accurately weighed test sample in DMSO followed by dilution to the concentration of 1 mg/mL with acetonitrile. The stock solution was stored under the condition of −20° C. for later use.
(2) Internal standard solution was prepared by diluting a certain amount of the Propranolol stock solution in the concentration of 1 mg/mL to 100 ng/mL with water.
Samples treated with liquid-liquid extraction and chromatographic separation were analyzed by triple quadrupole tandem mass spectrometer in multiple reaction monitoring (MRM) mode for quantitative analysis.
Pretreatment of plasma sample was performed according to the following procedures: (1) plasma sample (30 μL) was precisely measured, and internal standard (250 μL) was then added to the plasma sample which was then mixed by vortexing; (2) the sample was extracted once with 1 mL of MTBE and then centrifuged at 13000 rpm for 2 minutes at 4° C.; (3) supernatant (800 μL) was aspirated and dried with 96 holes nitrogen gas blowing; (4) the residue was dissolved with 150 μL of a mixture of methanol and water (v/v=1/1) and then mixed by vortexing; and (5) sampling: sample quantity was 8 μL.
Preparation of standard sample was performed according to the following procedures: (1) a pre-determined amount of the compound stock solution was precisely measured, and then was diluted to standard series of solution with acetonitrile; (2) each of the standard solution (20 μL) prepared above was precisely measured and to each was added 180 μL of blank plasma; (3) each sample was mixed by vortexing to obtain series of standard samples in which the plasma concentration was 3, 5, 10, 30, 100, 300, 1000, 3000, 5000 or 10000 ng/mL; and (4) standard curve was established.
The content of each test compound in rat plasma after administration was determined by LC/MS/MS.
Noncompartmental analysis to calculate pharmacokinetic parameters was performed with WinNonlin 6.1 software.

[5] abbreviates: iv(2 g/kg) [sic], method says 2 mg/kg.
[6] abbreviates: po(5 g/kg) [sic], method says 5 mg/kg.

HER2 (human epidermal growth factor receptor 2), sequence (P04626 23-1255): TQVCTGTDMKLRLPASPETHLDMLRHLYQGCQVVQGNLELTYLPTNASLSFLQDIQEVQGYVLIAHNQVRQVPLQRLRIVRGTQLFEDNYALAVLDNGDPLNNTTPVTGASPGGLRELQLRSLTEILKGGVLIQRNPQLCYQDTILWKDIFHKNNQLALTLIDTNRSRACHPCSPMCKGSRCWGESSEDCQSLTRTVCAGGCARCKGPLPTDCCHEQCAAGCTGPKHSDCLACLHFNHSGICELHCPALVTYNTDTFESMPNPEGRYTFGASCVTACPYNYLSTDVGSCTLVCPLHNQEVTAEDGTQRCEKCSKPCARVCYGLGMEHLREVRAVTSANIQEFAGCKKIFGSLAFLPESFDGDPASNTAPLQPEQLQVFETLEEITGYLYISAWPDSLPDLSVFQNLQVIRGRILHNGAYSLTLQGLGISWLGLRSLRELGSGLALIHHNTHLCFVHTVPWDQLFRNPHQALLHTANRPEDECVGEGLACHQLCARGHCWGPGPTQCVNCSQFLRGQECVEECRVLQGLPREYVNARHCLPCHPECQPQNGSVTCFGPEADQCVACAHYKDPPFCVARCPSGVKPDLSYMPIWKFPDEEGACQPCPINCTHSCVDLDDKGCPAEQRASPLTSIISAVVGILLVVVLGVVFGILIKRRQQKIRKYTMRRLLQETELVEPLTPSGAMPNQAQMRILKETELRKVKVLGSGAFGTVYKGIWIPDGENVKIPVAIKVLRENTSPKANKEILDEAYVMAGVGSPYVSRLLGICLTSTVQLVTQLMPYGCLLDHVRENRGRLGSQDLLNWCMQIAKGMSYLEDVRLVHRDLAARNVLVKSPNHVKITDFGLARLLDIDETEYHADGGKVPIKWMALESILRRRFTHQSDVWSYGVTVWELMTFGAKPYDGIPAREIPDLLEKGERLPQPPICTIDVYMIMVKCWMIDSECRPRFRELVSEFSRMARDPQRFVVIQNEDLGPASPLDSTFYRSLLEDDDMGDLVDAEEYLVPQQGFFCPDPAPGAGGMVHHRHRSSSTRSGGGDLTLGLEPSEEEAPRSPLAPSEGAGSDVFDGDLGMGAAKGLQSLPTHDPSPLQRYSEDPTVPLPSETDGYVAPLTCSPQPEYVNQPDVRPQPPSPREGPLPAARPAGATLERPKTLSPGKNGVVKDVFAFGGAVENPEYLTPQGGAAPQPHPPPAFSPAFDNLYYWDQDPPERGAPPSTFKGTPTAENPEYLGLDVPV
EGFR T790M (human epidermal growth factor receptor T790M mutation), sequence (P00533 25-1210 T790M): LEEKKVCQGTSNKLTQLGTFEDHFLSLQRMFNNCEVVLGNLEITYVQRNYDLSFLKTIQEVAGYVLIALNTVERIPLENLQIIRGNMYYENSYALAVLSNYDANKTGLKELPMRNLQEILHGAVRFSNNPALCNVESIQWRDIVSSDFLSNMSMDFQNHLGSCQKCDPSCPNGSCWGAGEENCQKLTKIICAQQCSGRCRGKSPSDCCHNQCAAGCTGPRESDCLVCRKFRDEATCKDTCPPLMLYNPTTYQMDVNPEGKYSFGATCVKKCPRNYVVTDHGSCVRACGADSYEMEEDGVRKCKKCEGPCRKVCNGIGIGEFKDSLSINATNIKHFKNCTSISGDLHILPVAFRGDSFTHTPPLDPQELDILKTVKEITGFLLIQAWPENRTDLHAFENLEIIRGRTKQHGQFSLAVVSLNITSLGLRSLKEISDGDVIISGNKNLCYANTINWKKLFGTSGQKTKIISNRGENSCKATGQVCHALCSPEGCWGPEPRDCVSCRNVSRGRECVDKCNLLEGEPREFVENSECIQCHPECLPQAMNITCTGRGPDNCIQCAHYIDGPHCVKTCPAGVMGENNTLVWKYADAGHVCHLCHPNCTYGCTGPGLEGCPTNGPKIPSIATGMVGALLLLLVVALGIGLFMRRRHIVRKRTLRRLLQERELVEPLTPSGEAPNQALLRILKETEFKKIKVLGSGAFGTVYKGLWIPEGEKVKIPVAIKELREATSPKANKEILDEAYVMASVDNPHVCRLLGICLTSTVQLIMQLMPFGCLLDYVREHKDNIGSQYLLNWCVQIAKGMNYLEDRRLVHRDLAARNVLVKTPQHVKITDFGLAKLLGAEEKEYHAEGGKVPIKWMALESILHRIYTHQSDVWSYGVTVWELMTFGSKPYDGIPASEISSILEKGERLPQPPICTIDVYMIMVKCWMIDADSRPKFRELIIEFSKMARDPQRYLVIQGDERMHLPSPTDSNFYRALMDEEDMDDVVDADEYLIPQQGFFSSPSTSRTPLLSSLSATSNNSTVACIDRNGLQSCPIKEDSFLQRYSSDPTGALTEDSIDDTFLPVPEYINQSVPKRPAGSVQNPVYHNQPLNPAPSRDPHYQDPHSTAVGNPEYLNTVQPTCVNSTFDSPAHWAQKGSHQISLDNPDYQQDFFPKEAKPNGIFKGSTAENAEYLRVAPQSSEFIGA

As usually defined, the IC50 is the concentration that gives 50% inhibition. A higher IC50 goes with a need for much substance. In the case of `CCOc1cc2ncnc(Nc3ccc(F)c(Cl)c3)c2cc1NC(=O)/C=C/CN1C[C@@H]2OCCO[C@@H]2C1` [Example 3, (E)-N-(4-((3-Chloro-4-fluorophenyl)amino)-7-ethoxyquinazolin-6-yl)-4-((4aR,7aS)-tetrahydro-2H-[1,4]dioxin[2,3-c]pyrrol-6(3H)-yl)but-2-enamide], the IC50 in data set [1] came out at 6.4 nM; in data set [2] it was 8.1 nM; in data set [3] it was 6.2 nM.

Regarding `O=C(/C=C/CN1C[C@@H]2OCCO[C@@H]2C1)Nc1cc2c(Nc3ccc(F)c(Cl)c3)ncnc2cc1O[C@H]1CCOC1` [Example 5, (E)-N-(4-((3-Chloro-4-fluorophenyl)amino)-7-(((S)-tetrahydrofuran-3-yl)oxy)quinazolin-6-yl)-4-((4aR,7aS)-tetrahydro-2H-[1,4]dioxino[2,3-c]pyrrol-6(3H)-yl)but-2-enamide], the IC50 in data set [1] was 3.6 nM; in data set [2] it was 11.7 nM; in data set [3], 6.8 nM.

`COCCOc1cc2ncnc(Nc3ccc(F)c(Cl)c3)c2cc1NC(=O)/C=C/CN1C[C@@H]2OCCO[C@@H]2C1` [Example 6, (E)-N-(4-((3-Chloro-4-fluorophenyl)amino)-7-(2-methoxyethoxy)quinazolin-6-yl)-4-((4aR,7aS)-tetrahydro-2H-[1,4]dioxino[2,3-c]pyrrol-6(3H)-yl)but-2-enamide]: the values for the IC50 in data set [1], in data set [2] and in data set [3] were 1.8 nM, 10.4 nM and 8.7 nM, respectively.

`O=C(/C=C/CN1C[C@@H]2OCCO[C@@H]2C1)Nc1cc2c(Nc3ccc(F)c(Cl)c3)ncnc2cc1OCC(F)(F)F` [Example 7, (E)-N-(4-((3-Chloro-4-fluorophenyl)amino)-7-(2,2,2-trifluoroethoxy)quinazolin-6-yl)-4-((4aR,7aS)-tetrahydro-2H-[1,4]dioxino[2,3-c]pyrrol-6(3H)-yl)but-2-enamide]: the IC50 turned out to be 15.4 nM in data set [1], 44 nM in data set [2] and 22.6 nM in data set [3].

The term AUC(0-t) denotes the area under the concentration-time curve up to a stated or last time point. Low values mean less exposure, high ones more exposure. As a reminder, the Cmax is the maximum level reached in the sampled fluid or tissue. As a reminder, the half-life is the time needed for the level to fall by half in the phase considered. Higher therefore signals slow decline. As for `[2H]C([2H])([2H])Oc1cc2ncnc(Nc3ccc(F)c(Cl)c3)c2cc1NC(=O)/C=C/CN1C[C@@H]2OCCO[C@@H]2C1` [Example 20, (E)-N-(4-((3-Chloro-4-fluorophenyl)amino)-7-(methoxy-D3)quinazolin-6-yl)-4-((4aR,7aS)-tetrahydro 2H-[1,4]dioxino[2,3-c]pyrrol-6(3H)-yl)but-2-enamide], in data set [4] (setting [5]), the AUC(0-t) stood at 1450 ng·h/mL, the Cmax worked out at 868 ng/mL, the half-life was 2.22 h and the Vd was found to be 3.71 L/kg. In addition, in data set [4] (setting [6]), the AUC(0-t) turned out to be 3190 ng·h/mL, the peak level (Cmax) was 336 ng/mL and the half-life was 3.6 h.

`O=C(/C=C/CN1C[C@@H]2OCCO[C@@H]2C1)Nc1ccc2ncnc(Nc3ccc(OCc4cccc(F)c4)c(Cl)c3)c2c1` [Example 21, (E)-N-(4-((3-Chloro-4-((3-fluorobenzyl)oxy)phenyl)amino)quinazolin-6-yl)-4-((4aR,7aS)-tetrahydro-2H-[1,4]dioxino[2,3-c]pyrrol-6(3H)-yl)but-2-enamide]: the IC50 worked out at 15 nM in data set [1], 3.5 nM in data set [2] and 317 nM in data set [3].

With `O=C(/C=C/CN1C[C@@H]2OCCO[C@@H]2C1)Nc1ccc2ncnc(Nc3ccc(OCc4ccccn4)c(Cl)c3)c2c1` [Example 22, (E)-N-(4-((3-Chloro-4-(pyridin-2-ylmethoxy)phenyl)amino)quinazolin-6-yl)-4-((4aR,7aS)-tetrahydro-2H-[1,4]dioxino[2,3-c]pyrrol-6(3H)-yl)but-2-enamide], the values for the IC50 in data set [1], in data set [2] and in data set [3] were 22 nM, 1.9 nM and 47.3 nM, respectively.

`O=C(/C=C/CN1C[C@@H]2OCCO[C@@H]2C1)Nc1ccc2ncnc(Nc3ccc4c(cnn4Cc4cccc(F)c4)c3)c2c1` [Example 26, (E)-N-(4-((1-(3-Fluorobenzyl)-1H-indazol-5-yl)amino)quinazolin-6-yl)-4-((4aR,7aS)-tetrahydro-2H-[1,4]dioxin[2,3-c]pyrrol-6(3H)-yl)but-2-enamide]: the IC50 in data set [1] was 14 nM; in data set [2] it was 1.6 nM; in data set [3] it was 89.3 nM.

`COc1cc2ncnc(Nc3ccc(OCc4cccc(F)c4)c(Cl)c3)c2cc1NC(=O)/C=C/CN1C[C@@H]2OCCO[C@@H]2C1` [Example 29, (E)-N-(4-((3-Chloro-4-((3-fluorobenzyl)oxy)phenyl)amino)-7-methoxyquinazolin-6-yl)-4-((4aR,7aS)-tetrahydro-2H-[1,4]dioxino[2,3-c]pyrrol-6(3H)-yl)but-2-enamide] displayed an IC50 in data set [2] of 3.7 nM.

Consider `CCOc1cc2ncnc(Nc3ccc(OCc4cccc(F)c4)c(Cl)c3)c2cc1NC(=O)/C=C/CN1C[C@@H]2OCCO[C@@H]2C1` [Example 30, (E)-N-(4-((3-Chloro-4-((3-fluorobenzyl)oxy)phenyl)amino)-7-ethoxyquinazolin-6-yl)-4-((4aR,7aS)-tetrahydro-2H-[1,4]dioxino[2,3-c]pyrrol-6(3H)-yl)but-2-enamide], for which the IC50 in data set [1] is 31.9 nM; in data set [2] it was 6.6 nM; in data set [3], 133 nM.

By bioavailability is commonly meant the share of a dose that reaches the circulation, judged against a reference dose that is usually intravenous. For the compound `COCCOc1cc2ncnc(Nc3ccc(Cl)c(Cl)c3F)c2cc1NC(=O)/C=C/CN1C[C@@H]2OCCO[C@@H]2C1` [Example 33, (E)-N-(4-((3,4-Dichloro-2-fluorophenyl)amino)-7-(2-methoxyethoxy)quinazolin-6-yl)-4-((4aR,7aS)-tetrahydro-2H-[1,4]dioxino[2,3-c]pyrrol-6(3H)-yl)but-2-enamide], half-maximal inhibition in data set [2] (IC50) required 9.6 nM. In data set [4] (setting [5]), the area under the curve AUC(0-t) is 1250 ng·h/mL, the Cmax stood at 890 ng/mL, the half-life was 1.29 h and the Vd amounted to 2.77 L/kg. Besides, the bioavailability in data set [4] (po 5 vs iv 2 (g/kg [sic]; mg/kg in method), read-out: F (bioavailability)) turned out to be 44.5%. In data set [4] (setting [6]), this compound gave an area under the curve AUC(0-t) of 1370 ng·h/mL, a Cmax of 346 ng/mL and a half-life of 1.27 h.

`COc1cc2ncnc(Nc3ccc(F)c(Cl)c3F)c2cc1NC(=O)/C=C/CN1C[C@@H]2OCCO[C@@H]2C1` [Example 35, (E)-N-(4-((3-Chloro-2,4-difluorophenyl)amino)-7-methoxyquinazolin-6-yl)-4-((4aR,7aS)-tetrahydro-2H-[1,4]dioxino[2,3-c]pyrrol-6(3H)-yl)but-2-enamide]: the IC50 in data set [1] was 0.9 nM; in data set [2], 17.8 nM; in data set [3] it was 20 nM.
